Data set [1] deals with LeTx-induced cytotoxicity of RAW264.7 cells. The data set is described as follows: cells. Conditions: Mus musculus, RAW264.7, read-out: EC50 (nM), inhibition of RAW 264.7 cell cytotoxicity mediated by anthrax lethal toxin.
Data set [2] concerns the target T1, trypsin-like activity of purified rabbit 20S proteasomes (Oryctolagus cuniculus, UniProt G1SWK8).
T1 sequence (G1SWK8 1-271): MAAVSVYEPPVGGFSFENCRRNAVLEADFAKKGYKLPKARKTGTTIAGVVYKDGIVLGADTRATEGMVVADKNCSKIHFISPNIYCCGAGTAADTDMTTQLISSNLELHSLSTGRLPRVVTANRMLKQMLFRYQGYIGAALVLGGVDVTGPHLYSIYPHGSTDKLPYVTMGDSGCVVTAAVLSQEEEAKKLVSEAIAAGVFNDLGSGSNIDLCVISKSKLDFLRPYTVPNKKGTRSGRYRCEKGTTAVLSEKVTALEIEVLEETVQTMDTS
As to conditions: under the conditions tested.

The target of data set [3] is T1, trypsin-like activity of purified rabbit 20S proteasomes. The data set is described as follows: biochemical.
For a further data set, the system named is RPMI 8226 cells. The data set is described as follows: Cell growth inhibition (resazurin, 48 hours), RPMI 8226.
Data set [4] concerns the target T2, chymotrypsin-like activity of rabbit muscle 20S proteasomes (Oryctolagus cuniculus, UniProt G1T4Q9).
T2 sequence (G1T4Q9 1-263): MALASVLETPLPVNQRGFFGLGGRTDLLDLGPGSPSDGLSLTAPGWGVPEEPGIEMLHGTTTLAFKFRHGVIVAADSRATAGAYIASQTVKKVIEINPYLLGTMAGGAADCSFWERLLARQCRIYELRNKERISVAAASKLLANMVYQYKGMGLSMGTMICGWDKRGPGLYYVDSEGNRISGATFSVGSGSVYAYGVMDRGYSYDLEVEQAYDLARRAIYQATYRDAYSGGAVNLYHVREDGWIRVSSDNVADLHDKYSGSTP
The data set is described as follows: Inhibition of chymotrypsin-like activity of purified rabbit muscle 20S proteasome (suc-LLVY-AMC). The data set is classed as biochemical. Conditions: Table 3; mean EC50; purified rabbit 20S proteasomes; read-out: EC50 Values, Chymotrypsin-like. Here is the method: This peptide substrate is specific for the chymotrypsin-like enzyme activity of the proteasome.
Omuralide was prepared as a 10 mM stock in DMSO and stored in 5 μL aliquots at −80° C. […] The assay measures the hydrolysis of Suc-LLVY-AMC into Suc-LLVY and AMC. The released coumarin (AMC) was measured fluorometrically by using λex=390 nm and λem=460 nm. The assays were performed in a microtiter plate (Corning 3904), and followed kinetically with measurements every five minutes. The instrument used was a Thermo Lab Systems Fluoroskan, with the incubation chamber set to 37° C. The assays were performed according to the manufacturer's protocol, with the following changes. The proteasome was activated as described with SDS, and held on ice prior to the assay. […] Ten microliters of each dose were added in triplicate to the assay plate, and 190 μL of the activated proteasome was added and mixed. The samples were pre-incubated in the Fluoroskan for 5 minutes at 37° C. Substrate was added and the kinetics of AMC were followed for one hour.

Data set [5] has as its target PGPH (caspase-like) activity of rabbit muscle 20S proteasomes (Oryctolagus cuniculus, UniProt A0A5F9DQW2). The data set is described as follows: Inhibition of caspase-like (PGPH) activity of 20S proteasome (Z-LLE-AMC). The data set is classed as biochemical. As to conditions: Table 3; mean EC50; purified rabbit 20S proteasomes. Here is the method:
A commercially available fluorogenic substrate specific for the PGPH activity was used instead of the chymotrypsin substrate supplied in the proteasome assay kit described above.
The substrate Z-LLE-AMC was prepared as a 20 mM stock solution in DMSO, stored at −20° C. The source of the proteasomes was the commercially available kit from Calbiochem (Cat. #539158). As with the chymotrypsin substrate, the proteasome can cleave Z-LLE-AMC into Z-LLE and free AMC. The activity can then be determined by measuring the fluorescence of the released AMC (λex=390 nm and λem=460 nm). The proteasomes were activated with SDS and held on ice as per manufacturer's recommendation. […] The series was diluted 20-fold with assay buffer and preincubated with the proteasomes as described for the chymotrypsin-like activity. After addition of substrate, the samples were incubated at 37° C., and release of the fluorescent AMC was monitored in a fluorimeter. All data were collected and plotted as the mean of triplicate points. […] As before, the model chosen was a sigmoidal dose-response, with a variable slope.

The test system of the next data set is U266 cells. The data set is described as follows: Cell growth inhibition (resazurin, 48 hours), U266. (In general: Resazurin is reduced to fluorescent resorufin, in cell work by metabolically active cells.)
The subject of data set [6] is NF-κB-mediated luciferase activity in HEK293 NF-κB/Luc cells. The data set is described as follows: NF-κB-mediated luciferase reporter gene assay. Format: cell-based, human. As to conditions: pretreatment of NF-κB/Luc 293 cells. Here is the method:
The HEK293 NF-κB/luciferase reporter cell line is a derivative of the human embryonic kidney cell line (ATCC; CRL- 1573) and carries a luciferase reporter gene under the regulation of 5×NF-κB binding sites. […] When performing the luciferase assay, the DMEM basal medium was replaced with phenol-red free DMEM basal medium and the G418 was omitted.
For NF-κB-mediated luciferase assays, HEK293 NF-κB/luciferase cells were seeded at 1.5×10^4 cells/well in 90 μl phenol-red free DMEM complete medium into Corning 3917 white opaque-bottom tissue culture plates. […] This dilution series was further diluted 40× in appropriate culture medium and ten μl aliquots were added to the test wells in triplicate resulting in final test concentrations ranging from 1 μM to 320 pM. […] For Formula II-19, a 127 μM starting dilution was made in 100% DMSO and the final test concentrations ranging from 317 nM to 0.1 nM. […] After 1 hr pretreatment, 10 μl of a 50 ng/ml TNF-α solution, prepared in the phenol-red free DMEM medium was added, and the plates were incubated for an additional 6 hr.
NF-κB inducible luciferase activity was measured at 6 hours.
The HEK293 NF-κB/luciferase reporter cell line is a derivative of the human embryonic kidney cell line (ATCC; CRL-1573) and carries a luciferase reporter gene under the regulation of 5×NF-κB binding sites. […] When performing the luciferase assay, the DMEM basal medium was replaced with phenol-red free DMEM basal medium and the G418 was omitted.
For NF-κB-mediated luciferase assays, HEK293 NF-κB/luciferase cells were seeded at 1.5×10^4 cells/well in 90 μl phenol-red free DMEM complete medium into Corning 3917 white opaque-bottom tissue culture plates. For Formula II-2, Formula II-4 and Formula II-5A, a 400 μM starting dilution was made in 100% DMSO and this dilution was used to generate a 8-point half log dilution series. This dilution series was further diluted 40× in appropriate culture medium and ten μl aliquots were added to the test wells in triplicate resulting in final test concentrations ranging from 1 μM to 320 pM. […] After 1 hr pretreatment, 10 μl of a 50 ng/ml TNF-α solution, prepared in the phenol-red free DMEM medium was added, and the plates were incubated for an additional 6 hr.
The relative luciferase units (RLU) were measured by using a Fusion microplate fluorometer (Packard Bioscience).
A general note: A reporter such as luciferase makes a cellular process visible.

For another data set, the system named is HT-29 cells. The data set is described as follows: Cell growth inhibition (resazurin, 48 hours), HT-29. The data set is classed as cell-based. Conditions: Homo sapiens, HT-29.
In the next data set the test system is MDA-MB-231 cells. The data set is described as follows: Cell growth inhibition (resazurin, 48 hours), MDA-MB-231. Format: cell-based. Conditions: Homo sapiens, MDA-MB-231.
For another data set, the system named is PC-3 cells. The data set is described as follows: Cell growth inhibition (resazurin, 48 hours), PC-3. Conditions: Homo sapiens, PC-3. Format: cell-based, human.
In another data set the test system is NCI-H292 cells. The data set is described as follows: Cell growth inhibition (resazurin, 48 hours), NCI-H292. The data set is classed as cell-based, human. Conditions: Homo sapiens, NCI-H292, Table 13; NCI-H292.
A further data set concerns MES-SA cells. The data set is described as follows: Cell growth inhibition (resazurin, 48 hours), MES-SA.
For a further data set, the system named is MES-SA/Dx5 cells. The data set is described as follows: cells.
[7] abbreviates: Homo sapiens, RPMI-8226, read-out: RPMI 8226 EC50 (nM), Table 15, mean EC50.
[8] abbreviates: Homo sapiens, U-266, read-out: U266 EC50 (nM), Table 15, mean EC50.

Like-named read-outs stand apart in the source and are kept apart here. A value given as a limit tells only on which side of the number the result lay.

Chain of PGPH (caspase-like) activity of rabbit muscle 20S proteasomes (A0A5F9DQW2 1-212): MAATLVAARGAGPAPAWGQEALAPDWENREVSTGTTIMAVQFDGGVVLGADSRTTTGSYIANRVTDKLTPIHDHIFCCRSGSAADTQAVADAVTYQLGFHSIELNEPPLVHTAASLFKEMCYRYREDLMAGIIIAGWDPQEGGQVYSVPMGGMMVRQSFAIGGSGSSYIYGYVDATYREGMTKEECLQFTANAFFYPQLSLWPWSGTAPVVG

For `CC12OC(=O)C1(C(=O)C1C=CCCC1)NC(=O)C2CCCl` (stereo not drawn) [Formula II-13C], the EC50 (commonly the midpoint of the concentration-response curve) was greater than 330 nM in data set [1]; 10700 nM in [3]; greater than 20000 nM with RPMI 8226 cells (setting [7]); 8200 nM in data set [4]; greater than 20000 nM in data set [5]; greater than 20000 nM with U266 cells (setting [8]). Further, the “inhibit the trypsin-like activity of the 20S proteasome” value (“inhibit the trypsin-like activity” below) in [2] was “able to inhibit”.
Take `C[C@@]12OC(=O)[C@]1([C@@H](O)[C@H]1CCC[C@H](Cl)[C@H]1O)NC(=O)[C@@H]2CCCl` [Formula IV-3C]: the EC50 in data set [1] was greater than 330 nM; in the data set with RPMI 8226 cells (setting [7]), greater than 20000 nM; in data set [4] it was 7800 nM; in data set [5], greater than 20000 nM; in the data set on U266 cells (setting [8]), 8020 nM.
With `CC[C@@]12OC(=O)[C@]1([C@@H](O)[C@@H]1C=CCCC1)NC(=O)[C@@H]2CCCl` [Formula II-24C], in [2], the “inhibit the trypsin-like activity” value is listed as “able to inhibit”. In addition, the EC50 in data set [3] is 3200 nM; in data set [4], 2200 nM; in data set [5], greater than 20000 nM. For the same molecule, the “luciferase activity upon TNF-α stimulation” value in data set [6] was “dose-dependent decrease”.
Take `C[C@@]12OC(=O)[C@]1([C@@H](O)[C@@H]1C=CCCC1)NC(=O)[C@@H]2CCI` [Formula II-19]: the EC50 came out at 13 nM in the data set on HT-29 cells; 17 nM with MDA-MB-231 cells; 27 nM with PC-3 cells; 13 nM in [3]; 5.9 nM in the data set with RPMI 8226 cells (Homo sapiens, RPMI-8226, Table 13, RPMI 8226); 6.5 nM in the data set on RPMI 8226 cells (setting [7]). The EC50 was found to be 7.1 nM in the data set on RPMI 8226 cells (Table 13, RPMI 8226); 3 nM in data set [4]; 573 nM in data set [5]; 31 nM in the data set with NCI-H292 cells; 3.2 nM in the data set with U266 cells (Homo sapiens, U-266, Table 13, U266); 3.3 nM in the data set on U266 cells (setting [8]). The same molecule returned an EC50 in the data set on U266 cells (Table 13, U266) of 3.4 nM. In data set [2], the “inhibit the trypsin-like activity” value was “able to inhibit”. In data set [6], the “luciferase activity upon TNF-α stimulation” value is listed as “dose-dependent decrease”.
Consider `C[C@@]12OC(=O)[C@]1([C@@H](O)[C@@H]1C=CCCC1)NC(=O)[C@@H]2CCO` [Formula II-21], for which, in data set [2], the “inhibit the trypsin-like activity” value was “able to inhibit”. In addition, the concentration for a half-maximal effect (EC50) in [3] amounted to 720 nM; in [4] it was 7 nM; in data set [5], 2600 nM. Besides, the “luciferase activity upon TNF-α stimulation” value in data set [6] was “dose-dependent decrease”.
Turning to `C[C@H]1C(=O)N[C@@]2([C@@H](O)[C@@H]3C=CCCC3)C(=O)O[C@@]12C` [Formula II-20], the “inhibit the trypsin-like activity” value in data set [2] was “able to inhibit”. The EC50 is 318 nM in [3]; 10500 nM with RPMI 8226 cells (setting [7]); 5 nM in [4]; 1400 nM in data set [5]; 3810 nM in the data set on U266 cells (setting [8]). Further, the “luciferase activity upon TNF-α stimulation” value in data set [6] is reported as “dose-dependent decrease”.
For `CCC(=O)OCC[C@H]1C(=O)N[C@@]2([C@@H](O)[C@@H]3C=CCCC3)C(=O)O[C@@]12C` [Formula II-22], the “inhibit the trypsin-like activity” value in data set [2] was “able to inhibit”. Also, the EC50 in [3] worked out at 308 nM; in data set [4], 5 nM; in [5], 1300 nM. Moreover, in data set [6], the “luciferase activity upon TNF-α stimulation” value is recorded as “dose-dependent decrease”.
In the case of `CC(=O)O[C@H]1C(=O)[C@@]2(C)[C@H]([C@H](OC(=O)c3ccccc3)[C@]3(O)C[C@H](OC(=O)[C@H](O)[C@@H](NC(=O)c4ccccc4)c4ccccc4)C(C)=C1C3(C)C)[C@]1(OC(C)=O)CO[C@@H]1C[C@@H]2O` [Paclitaxel, reference compound], in the data set with MES-SA cells, the “% cytotoxicity, mean ± SD” value is reported as 63 ± 7%. Also, the EC50 in the data set on MES-SA cells (Homo sapiens, MES-SA, read-out: EC50 (nM) MES-SA, Table 16) was 5.6 nM; in the data set on MES-SA cells (Homo sapiens, MES-SA, read-out: EC50 (nM), mean, Table 7, MES-SA) it was 5 ± 2 nM; in the data set with MES-SA cells (read-out: EC50 (nM) MES-SA, Table 16), 4.6 nM; in the data set on MES-SA/Dx5 cells (Homo sapiens, MES-SA/Dx5, read-out: EC50 (nM), mean ± SD, Table 7, MES-SA/Dx5) it was 2040 ± 150 nM. In the data set with MES-SA/Dx5 cells (Table 16, ratio of EC50 values (MES-SA/Dx5:MES-SA)), the Fold change worked out at 798 fold.
`CC12OC(=O)C1(C(=O)C1CCCCC1)NC(=O)C2CCCl` (stereo not drawn) [Formula II-8C]: the EC50 in the data set with RPMI 8226 cells (setting [7]) and in the data set on U266 cells (setting [8]) was greater than 20000 nM in each case.

These data come from US20050049294A1, “Methods of using [3.2.0] heterocyclic compounds and analogs thereof” (priority 2003, published 2005).
